Measurements reported in patent US8574893B2, “Nucleic acid cleavage complex and method for using the same” (National Cheng Kung University, priority 2010, dated 2013).

Tested on: pST3 test vector
Assay: DNA cleavage test of the nucleic acid cleavage reagent in vitro
Format: biochemical
Description: First, the pST3 test vector of Test Example 1 is prepared. The abovementioned vector and the nucleic acid cleavage reagent (Cypate) are mixed in a molar ratio of 1:1000. […] Columns 5 and 6 of FIG. 5 show the position of the nucleic acid cleavage reagent (Cypate) in the gel.

CC1(C)C(/C=C/C=C/C=C/C=C2/N(CCC(=O)O)c3ccc4ccccc4c3C2(C)C)=[N+](CCC(=O)[O-])c2ccc3ccccc3c21 [Cypate, cypate]
cleavage of the plasmid to nicked open-circular plasmid (Form II plasmid) (vector:Cypate molar ratio 1:1000, irradiation for 5 mins, FIG. 5 column 8): partially cleaved | cleavage of the plasmid to nicked open-circular plasmid (Form II plasmid) (vector:Cypate molar ratio 1:1000, irradiation for 10 mins, FIG. 5 column 10): completely cleaved
